Reference: patent publication US20130230486A1, “COMPOSITIONS AND METHODS TO INDUCE TARGETED APOPTOSIS” (priority 2010, published 2013)

Tests used:
caspase-8 = assay: Caspase-8 activation (Fas-induced apoptosis) in lung fibroblasts; type: cell-based, human; conditions: MRC5
Experimental: To assess the effects of these cytokines on PTPN13 expression, non-diseased normal human lung fibroblasts (NHLF), fibrotic human lung fibroblasts (FHLF) and a fetal lung fibroblast cell line, MRC5 cells, were treated with TNF-α (10/ng/ml), IFN-γ (50 U/ml) or with both cytokines for 6 hours. PTPN13 expression was measured by quantitative PCR (FIG. 2A). The primary lung fibroblasts from normal and fibrotic lung had equivalent levels of PTPN13 expression to the MRC5 lung fibroblast cell line. […] Treatment with TNF-α alone caused a 40% decrease in PTPN13 expression. Combined exposure to TNF-α and IFN-γ decreased PTPN13 mRNA expression by 80%. Protein lysates from normal, fibrotic and MRC5 fibroblasts treated for 36 hours with TNF-α (10/ng/ml), IFN-γ (50 U/ml) or with both cytokines were then analyzed for PTPN13 expression. […]
In one exemplary method, to assess whether PTPN13 expression prevents Fas-induced apoptosis, PTPN13 expression was knocked-down using siRNA. […] Apoptosis was assayed by quantifying activation of caspase-3 and caspase-8 (FIG. 3C).
In death-receptor mediated apoptosis, formation of the DISC (Death-Inducing Signaling Complex) is essential for the initiation of apoptosis. […] The cells were lysed, immunoprecipitated with anti-Fas antibody, and co-immunoprecipitated FADD and caspase-8 were detected by immunoblotting. […]

Fas phospho-Y291 = assay: Tyrosine phosphorylation of Fas at tyrosine 291 by Western blot in MRC5 lung fibroblasts; type: cell-based, human; conditions: pervanadate 150 μM, time dependent
Experimental: PTPN13 has been shown in astrocytoma cells to dephosphorylate Fas at tyrosine 291. Little is known about the regulatory function of tyrosine phosphorylation of Fas. In another exemplary embodiment, to assess the effect of TNF-α and IFN-γ sensitization on the levels of Fas tyrosine phosphorylation, MRC5 lung fibroblasts were treated with TNF-α and IFN-γ for increasing amounts of time. Because TNF-α is known to increase tyrosine phosphorylation of many proteins, such as MAP kinases and AKT, within minutes following stimulation, the kinetics of TNF-α and IFN-γ induced tyrosine phosphorylation of Fas were assessed. MRC5 lung fibroblasts were treated with TNF-α (10 ng/ml) and IFN-γ (50 U/ml) for up to 48 hours. The cells were lysed and analyzed by western blot for phosphorylated Fas, using a phospho-specific antibody for Fas phosho-Y291. TNF-α and IFN-γ increased tyrosine phosphorylation of Fas at tyrosine residue 291 beginning at 18 hours. […] The pervanadate treated MRC5 cells were lysed and analyzed the tyrosine phosphorylation of Fas by western blotting. […] We then detected phosphorylated Fas by Western blot, using a phospho-specific antibody for Fas tyrosine residue 291. […]
FIG. 5: Inhibition of tyrosine phosphatase activity sensitizes lung fibroblasts to Fas-induced apoptosis. […] Caspase-8 activation was measured by a fluorescence based assay. […]

## pervanadate
caspase-8; 150 μM pervanadate 2 hour pre-treatment, then Fas-activating antibody 250 ng/ml
  caspase-8 activity over unstimulated cells: 6 fold
caspase-8; 150 μM pervanadate alone
  caspase-8 activity above untreated cells: 2 fold
Fas phospho-Y291
  tyrosine phosphorylation of Fas (Y291): increased
